In paper PMC6222672, “Pharmacokinetic and Metabolism Studies of 12-Riboside-Pseudoginsengenin DQ by UPLC-MS/MS and UPLC-QTOF-MS^E” (Molecules : A Journal of Synthetic Chemistry and Natural …, 2018):
“Also recorded” adds a separate entry of the source. Like-named read-outs stand apart in the source and are kept apart here.

Key:
[1] = Pharmacokinetic study of RPDQ in rats after intragastric and intravenous administration (UPLC-MS/MS of plasma); assay type: in vivo, Wistar rats; conditions: for AUC(0-t): read-out: AUC(0–60); for bioavailability: read-out: F (absolute bioavailability)
Method: The experiments on animals were approved by the Review Committee of Animal Care and Use of Jilin University. The study was conducted according to the ethical principles for animal use and care. Wistar rats (200 ± 20 g) were provided by Changchun Yisi Laboratory Animal Co. Ltd. (Changchun, China). All rats were housed in an environmentally controlled room (12 h light/dark cycle; temperature: 22 ± 2 °C; relative humidity: 55 ± 5%), and except during fast before experiments, the rats were fed with standard laboratory food and water ad libitum.
In the pharmacokinetic study, the rats were divided into different groups (n = 6, three males and three females): (1) RPDQ (6 mg/kg, i.g.), (2) RPDQ (12 mg/kg, i.g.), (3) RPDQ (24 mg/kg, i.g.), and (4) RPDQ (0.3 mg/kg, i.v.).
From the fossa orbitalis vein, the whole blood (150 μL) was collected at 0.5, 0.75, 1, 2, 3, 4, 6, 9, 10, 12, 18, 24, 48, and 60 h after oral administration, and 0.25, 0.5, 0.75, 1, 1.5, 2, 2.5, 3, 6, 12, and 24 h after intravenous administration. All the blood samples were anticoagulated with sodium heparin. After collection, the whole blood was centrifuged at 4000 rpm and 4 °C for 20 min to obtain plasma.
Plasma samples (being stored at −20 °C before analysis) were thawed and vortexed at room temperature. The mixture of each plasma sample (50 μL) and 20R-panaxadiol solution (100 ng/mL, 500 μL) was vortexed (2 min) and centrifuged (13,000 rpm, 4 °C, 10 min). The clear supernatant was obtained and transferred into vials, and 2 μL of it were then kept in autosampler at 4 °C and injected for analysis.
The analysis of pharmacokinetic was conducted on a Waters ACQUITY UPLC System coupled with a XEVO TQ-S mass spectrometer equipped with an electrospray ionization source (Waters, Milford, MA, USA). Separation was performed on a Waters BEH C18 UPLC column (2.1 × 50 mm, 1.7 μm) at 40 °C. The mobile phase, 0.1% formic aqueous solution (A) and 0.1% formic acid in acetonitrile (B) in proportions, was adjusted with a gradient elution programme (0 min, 40% B; 0~2 min, 40~100% B; 2~2.5 min, 100% B; 2.5~2.6 min, 100~40% B; 2.6~3.5 min, […]). The flow rate was kept constant at 0.3 mL/min. Chromatography of the RPDQ and IS was performed within 3.5 min. The injection volume was 2 μL. The multiple reaction monitoring (MRM) mode was performed in ESI^+. The main parameters were as follows: capillary voltage: 3000 V; source temperature: 150 °C; desolvation temperature: 300 °C; desolvation gas flow: 800 L/h; cone gas flow: 150 L/h; nebulizer gas flow: 7 bar; collision gas flow: 0.15 mL/min; cone voltage: 35 V and 28 V for RPDQ and IS, respectively; collision energy: 10 eV and 6 eV for RPDQ and IS, respectively. Masslynx V4.1 workstation (Waters, Milford, MA, USA) was used for data acquisition and processing.
Samples containing RPDQ above the upper limit of quantification were diluted and re-analyzed. The pharmacokinetics analysis in non-compartmental mode was conducted by Drug and Statistics (DAS) 3.0 pharmacokinetic software programme (Mathematical Pharmacology Professional Committee of China, Shanghai, China). The concentration versus the time curve was plotted. The time to reach the peak concentration (Tmax) and the maximum plasma concentration (Cmax) were obtained after oral administration. The results are shown as the mean ± standard deviation. The absolute bioavailability (F%) was calculated using the equation (AUCp.o. × Dosei.v.)/(AUCi.v. × Dosep.o.) × 100%.

S180 cells = test: MTT cell viability test, S180 cells; assay type: cell-based; conditions: 1-200 μM, 44 h
Excerpt: Antitumor activity test of RPDQ in vitro by using S180, SPC-A-1 and A549 cells
Since the startmaterial for the semi-synthesis of 12-Riboside-pseudoginsengenin DQ (RPDQ) was pseudoginsengenin DQ (PDQ), the antitumor activities of RPDQ […]
and PDQ were both tested.
The SPC-A-1 and S180 tumor cell lines were purchased from Wuhan Procell Life Science & Technology Co,.Ltd. A549 tumor cell lines were purchased from iCell Bioscience Inc (Shanghai) Biological Co., Ltd.
2. Experimental procedure
S180 cells (1 × 10^5 cells/mL) were seeded into a 96-well plate. After 24 h, pretreated with various concentrations of RPDQ or PDQ (1-200 μM) for 44 h at 37℃, and the cells were treated with MTT for 4 h. The formazan crystal product in the cells were dissolved with acid isopropanol. The absorbance was measured at 570 nm with a […]
SPC-A-1/A549 cells(1×10^5 cells/mL) were seeded into a 96-well plate. After 24 h, pretreated with various concentrations of RPDQ or PDQ (1-200 μM) for 44 h at 37℃ , and the cells were treated with MTT for 4 h. […] The absorbance was measured at 490 nm with a […]
Cell viability was calculated by the following formula: Cell viability (%)= 1-{(ODcontrolgroup-ODtreatedgroup)/ODcontrol group×100%}.
All data were processed by statistical software SPSS 17.0. The data were expressed as Mean ± Standard Deviation. The differences between groups were analyzed by one-way analysis of variance. […]

[2] = both sexes, Wistar, rat, plasma, iv, rats, 0.3 mg/kg i.v.
[3] = both sexes, Wistar, rat, plasma, po, rats, 6 mg/kg intragastric
[4] = both sexes, Wistar, rat, plasma, po, rats, 12 mg/kg intragastric
[5] = both sexes, Wistar, rat, plasma, po, rats, 24 mg/kg intragastric

Q: For `CC(C)(O)[C@@H]1CC[C@@](C)([C@H]2CC[C@]3(C)[C@@H]2[C@H](O[C@@H]2O[C@H](CO)[C@@H](O)[C@H]2O)C[C@@H]2[C@@]4(C)CC[C@H](O)C(C)(C)[C@@H]4CC[C@]23C)O1` [RPDQ, 20S, 24S-12-O-β-D-ribofuranosyl-dammar-20, 24-epoxy-3β, 12β, 25-triol], which AUC(0-inf) [1, 2] is on record?
A: 8330 ± 270 ng·h/mL

Q: And the Tmax [1, 2]?
A: 0.25 h

Q: And the half-life [1, 2]?
A: 2.94 ± 0.51 h

Q: What about the AUC(0-t) [1, 2] of the same compound?
A: 8300 ± 258 ng·h/mL

Q: What about the clearance ([1]; both sexes, Wistar, rat, plasma, iv, rats, 0.3 mg/kg i.v., read-out: CLz (converted)) of the same compound?
A: 0.667 mL/min/kg

Q: What about the Vd ([1]; both sexes, Wistar, rat, plasma, iv, rats, 0.3 mg/kg i.v., read-out: Vz) of the same compound?
A: 11.52 ± 0.02 L/kg

Q: And the AUC(0-inf) [1, 3]?
A: 9570 ± 546 ng·h/mL

Q: What about the Tmax [1, 3] of the same compound?
A: 7 ± 1.55 h

Q: What about the half-life [1, 3] of the same compound?
A: 12.6 ± 1.28 h

Q: What about the bioavailability ([1]; both sexes, Wistar, rat, plasma, po, rats, 6 mg/kg intragastric vs 0.3 mg/kg i.v.) of the same compound?
A: 5.55%

Q: And the AUC(0-t) [1, 3]?
A: 9210 ± 608 ng·h/mL

Q: What about the AUC(0-inf) [1, 4] of the same compound?
A: 17700 ng·h/mL

Q: What about the Tmax [1, 4] of the same compound?
A: 7.5 ± 1.63 h

Q: What about the half-life [1, 4] of the same compound?
A: 12.8 ± 0.56 h

Q: And the bioavailability ([1]; both sexes, Wistar, rat, plasma, po, rats, 12 mg/kg intragastric vs 0.3 mg/kg i.v.)?
A: 5.15%

Q: What about the AUC(0-t) [1, 4] of the same compound?
A: 17100 ng·h/mL

Q: What about the AUC(0-inf) [1, 5] of the same compound?
A: 42600 ng·h/mL

Q: What about the Tmax [1, 5] of the same compound?
A: 7 ± 1.55 h

Q: What about the half-life [1, 5] of the same compound?
A: 13.7 ± 1.11 h

Q: And the bioavailability ([1]; both sexes, Wistar, rat, plasma, po, rats, 24 mg/kg intragastric vs 0.3 mg/kg i.v.)?
A: 6.08%

Q: What about the AUC(0-t) [1, 5] of the same compound?
A: 40400 ng·h/mL

Q: What about the concentration at 6 h ([1]; both sexes, Wistar, rat plasma sample collected at 6 h after an oral dose of 12 mg/kg) of the same compound?
A: 1000 ng/mL

Q: What about the CLz ([1]; rats, 6 mg/kg intragastric) of the same compound?
A: 10.5 ± 0.6 mL/min/kg

Q: And the Vz ([1]; rats, 6 mg/kg intragastric)?
A: 11.45 ± 1.55 L/kg

Q: And the CLz ([1]; rats, 12 mg/kg intragastric)?
A: 11.3 ± 0.367 mL/min/kg

Q: And the Vz ([1]; rats, 12 mg/kg intragastric)?
A: 12.53 ± 0.59 L/kg

Q: And the CLz ([1]; rats, 24 mg/kg intragastric)?
A: 9.5 ± 0.733 mL/min/kg

Q: What about the Vz ([1]; rats, 24 mg/kg intragastric) of the same compound?
A: 11.28 ± 1.69 L/kg

Q: What about the “time at which RPDQ could still be quantified in plasma” value ([1]; rats, after gastrointestinal administration) of the same compound?
A: 60 h

Q: And the “anticancer / anti-proliferation effect” value (S180 cells)?
A: good anti-proliferation effects; also recorded: significant anticancer activity
